Values belong to the molecule of their own block, whether it stands above or below them.
Columns and labels:
[1] = biological target: T1, Serine/threonine-protein kinase ULK2 (Homo sapiens) (UniProt Q8IYT8); assay: Selectivity interaction (KinomeScan (DiscoverX)) EUB0000607a ULK2; conditions: at 10 µM
T1 sequence (whole entry): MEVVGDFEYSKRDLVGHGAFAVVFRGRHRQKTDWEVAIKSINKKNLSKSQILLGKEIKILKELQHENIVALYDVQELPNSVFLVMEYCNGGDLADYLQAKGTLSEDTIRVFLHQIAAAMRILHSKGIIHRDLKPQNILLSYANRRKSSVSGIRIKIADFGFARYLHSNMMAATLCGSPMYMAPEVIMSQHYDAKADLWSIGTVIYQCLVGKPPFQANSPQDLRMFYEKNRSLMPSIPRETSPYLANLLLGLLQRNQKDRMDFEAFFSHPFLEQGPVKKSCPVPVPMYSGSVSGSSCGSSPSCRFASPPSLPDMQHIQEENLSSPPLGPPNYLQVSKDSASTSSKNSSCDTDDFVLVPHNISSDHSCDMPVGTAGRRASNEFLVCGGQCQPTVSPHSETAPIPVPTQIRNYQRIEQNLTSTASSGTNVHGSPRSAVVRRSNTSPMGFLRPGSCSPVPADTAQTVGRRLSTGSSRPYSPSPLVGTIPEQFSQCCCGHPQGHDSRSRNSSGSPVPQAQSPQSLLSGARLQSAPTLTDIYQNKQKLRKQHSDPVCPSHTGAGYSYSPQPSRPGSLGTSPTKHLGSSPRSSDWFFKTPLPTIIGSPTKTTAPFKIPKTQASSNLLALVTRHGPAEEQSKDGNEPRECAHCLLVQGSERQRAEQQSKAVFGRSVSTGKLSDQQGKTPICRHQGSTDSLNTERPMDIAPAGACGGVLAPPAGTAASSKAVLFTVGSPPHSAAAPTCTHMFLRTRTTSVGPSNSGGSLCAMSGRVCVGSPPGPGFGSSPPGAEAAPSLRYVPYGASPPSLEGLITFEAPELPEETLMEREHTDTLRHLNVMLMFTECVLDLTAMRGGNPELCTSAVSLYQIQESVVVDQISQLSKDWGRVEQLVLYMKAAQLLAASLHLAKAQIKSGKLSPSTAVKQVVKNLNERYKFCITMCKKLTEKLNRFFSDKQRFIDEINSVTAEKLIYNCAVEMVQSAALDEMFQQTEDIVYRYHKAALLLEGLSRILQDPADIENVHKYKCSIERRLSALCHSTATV

[2] = biological target: Aurora kinase B (Homo sapiens, UniProt Q96GD4); assay: Selectivity interaction (Kinase panel (DSF assay)) EUB0001559a AURKB
[3] = biological target: T2, Aurora kinase C (Homo sapiens) (UniProt Q9UQB9); conditions: at 10 µM
T2 sequence (whole entry): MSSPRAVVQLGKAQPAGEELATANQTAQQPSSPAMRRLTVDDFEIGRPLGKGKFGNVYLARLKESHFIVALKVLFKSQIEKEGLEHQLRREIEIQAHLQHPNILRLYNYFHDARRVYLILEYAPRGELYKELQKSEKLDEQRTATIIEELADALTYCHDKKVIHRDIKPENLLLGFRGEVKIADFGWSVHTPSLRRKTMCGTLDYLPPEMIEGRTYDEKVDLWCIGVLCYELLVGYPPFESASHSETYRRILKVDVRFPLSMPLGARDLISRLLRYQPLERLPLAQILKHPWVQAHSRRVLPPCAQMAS

[4] = biological target: Serine/threonine-protein kinase 38-like (Homo sapiens) (UniProt Q9Y2H1); assay: Selectivity interaction (KinomeScan (DiscoverX)) EUB0000045b STK38L
[5] = biological target: STE20/SPS1-related proline-alanine-rich protein kinase (Homo sapiens) (UniProt Q9UEW8); assay: Selectivity interaction (KinomeScan (DiscoverX)) EUB0001079a STK39; conditions: at 1 µM
[6] = biological target: Tyrosine-protein kinase Blk (Homo sapiens) (UniProt P51451); assay: Selectivity interaction (KinomeScan (DiscoverX)) EUB0001079a BLK; conditions: at 1 µM
[7] = biological target: Ribosomal protein S6 kinase alpha-4 (Homo sapiens) (UniProt O75676); assay: Selectivity interaction (Kinase panel (KiNativ target engagement assay in Jurkat cells)) EUB0001635a RPS6KA4; format: cell-based; conditions: Selectivity number of off-targets 0.0, Selectivity number of targets 233.0, Source Knowledge https://www.sciencedirect.com/science/article/pii/S2451945619300674?via%3Dihub, at 1 µM
[8] = biological target: T3, Serine/threonine-protein kinase TBK1 (Homo sapiens) (UniProt Q9UHD2); assay: Selectivity interaction (ActivX KiNativ screen (ex vivo kinase selectivity in human PBMCs)) EUB0001619a TBK1; format: cell-based; conditions: PBMC, at 1 µM
T3 sequence (whole entry): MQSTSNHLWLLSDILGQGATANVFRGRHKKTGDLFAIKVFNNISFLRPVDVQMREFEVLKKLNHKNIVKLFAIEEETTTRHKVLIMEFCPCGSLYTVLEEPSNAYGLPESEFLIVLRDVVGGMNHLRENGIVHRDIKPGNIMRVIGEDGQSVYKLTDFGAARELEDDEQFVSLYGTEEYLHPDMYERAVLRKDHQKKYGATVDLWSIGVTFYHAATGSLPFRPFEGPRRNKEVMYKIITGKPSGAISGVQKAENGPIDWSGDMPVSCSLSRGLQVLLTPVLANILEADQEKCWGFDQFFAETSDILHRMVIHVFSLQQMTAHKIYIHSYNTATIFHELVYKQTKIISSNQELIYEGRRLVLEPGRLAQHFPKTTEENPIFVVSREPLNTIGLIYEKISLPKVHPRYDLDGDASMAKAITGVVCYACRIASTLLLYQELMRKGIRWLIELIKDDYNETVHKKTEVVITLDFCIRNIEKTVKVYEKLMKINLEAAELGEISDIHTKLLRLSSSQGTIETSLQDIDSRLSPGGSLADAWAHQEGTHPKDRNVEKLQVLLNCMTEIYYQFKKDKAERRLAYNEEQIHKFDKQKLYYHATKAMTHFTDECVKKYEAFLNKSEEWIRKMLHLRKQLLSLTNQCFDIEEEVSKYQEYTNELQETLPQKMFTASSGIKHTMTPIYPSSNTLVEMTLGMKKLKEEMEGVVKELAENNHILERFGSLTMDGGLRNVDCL

Chain of Serine/threonine-protein kinase 38-like (Homo sapiens) (Q9Y2H1 2-464 limits assumed): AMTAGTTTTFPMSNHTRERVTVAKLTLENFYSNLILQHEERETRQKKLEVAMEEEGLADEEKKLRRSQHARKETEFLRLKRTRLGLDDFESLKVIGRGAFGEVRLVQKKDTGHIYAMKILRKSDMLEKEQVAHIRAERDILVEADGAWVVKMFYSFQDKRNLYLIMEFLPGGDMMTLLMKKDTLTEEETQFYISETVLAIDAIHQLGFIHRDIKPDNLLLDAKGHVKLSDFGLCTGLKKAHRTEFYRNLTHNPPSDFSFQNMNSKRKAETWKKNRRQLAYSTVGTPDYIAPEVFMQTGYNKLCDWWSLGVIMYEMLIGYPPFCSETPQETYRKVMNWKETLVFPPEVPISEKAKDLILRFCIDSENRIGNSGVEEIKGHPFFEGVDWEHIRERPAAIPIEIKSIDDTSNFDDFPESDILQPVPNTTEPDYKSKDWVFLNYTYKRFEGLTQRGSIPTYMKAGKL
Chain of Aurora kinase B (Q96GD4 whole entry): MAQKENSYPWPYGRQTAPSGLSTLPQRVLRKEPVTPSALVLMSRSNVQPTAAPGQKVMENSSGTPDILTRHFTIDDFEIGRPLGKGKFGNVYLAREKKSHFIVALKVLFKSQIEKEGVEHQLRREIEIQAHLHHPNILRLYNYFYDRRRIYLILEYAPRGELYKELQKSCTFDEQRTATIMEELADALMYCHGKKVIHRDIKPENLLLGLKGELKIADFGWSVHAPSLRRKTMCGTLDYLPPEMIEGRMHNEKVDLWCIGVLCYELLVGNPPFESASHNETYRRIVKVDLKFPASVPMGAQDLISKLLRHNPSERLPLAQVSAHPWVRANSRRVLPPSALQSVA
Chain of Ribosomal protein S6 kinase alpha-4 (Homo sapiens) (O75676 whole entry, looked up): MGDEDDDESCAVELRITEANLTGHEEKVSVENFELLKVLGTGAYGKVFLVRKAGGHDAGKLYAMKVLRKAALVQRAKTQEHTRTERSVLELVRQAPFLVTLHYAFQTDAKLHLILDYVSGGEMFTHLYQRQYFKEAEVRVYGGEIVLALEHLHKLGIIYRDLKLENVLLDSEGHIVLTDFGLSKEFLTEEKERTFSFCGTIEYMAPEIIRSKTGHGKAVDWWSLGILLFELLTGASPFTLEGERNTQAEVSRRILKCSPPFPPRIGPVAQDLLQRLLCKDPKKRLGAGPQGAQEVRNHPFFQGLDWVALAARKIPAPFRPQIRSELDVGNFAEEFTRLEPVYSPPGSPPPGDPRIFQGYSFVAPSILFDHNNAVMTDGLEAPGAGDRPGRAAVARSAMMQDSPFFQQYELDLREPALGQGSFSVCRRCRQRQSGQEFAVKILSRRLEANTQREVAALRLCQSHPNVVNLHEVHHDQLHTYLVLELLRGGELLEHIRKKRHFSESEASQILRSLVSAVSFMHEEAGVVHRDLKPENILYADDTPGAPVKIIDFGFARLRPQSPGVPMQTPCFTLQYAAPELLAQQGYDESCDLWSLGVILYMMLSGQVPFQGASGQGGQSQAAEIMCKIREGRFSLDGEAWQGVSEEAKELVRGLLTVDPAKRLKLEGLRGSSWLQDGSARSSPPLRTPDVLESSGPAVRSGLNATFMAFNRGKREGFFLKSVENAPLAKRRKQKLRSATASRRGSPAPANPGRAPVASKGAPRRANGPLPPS
Chain of Tyrosine-protein kinase Blk (Homo sapiens) (P51451 2-505 limits assumed): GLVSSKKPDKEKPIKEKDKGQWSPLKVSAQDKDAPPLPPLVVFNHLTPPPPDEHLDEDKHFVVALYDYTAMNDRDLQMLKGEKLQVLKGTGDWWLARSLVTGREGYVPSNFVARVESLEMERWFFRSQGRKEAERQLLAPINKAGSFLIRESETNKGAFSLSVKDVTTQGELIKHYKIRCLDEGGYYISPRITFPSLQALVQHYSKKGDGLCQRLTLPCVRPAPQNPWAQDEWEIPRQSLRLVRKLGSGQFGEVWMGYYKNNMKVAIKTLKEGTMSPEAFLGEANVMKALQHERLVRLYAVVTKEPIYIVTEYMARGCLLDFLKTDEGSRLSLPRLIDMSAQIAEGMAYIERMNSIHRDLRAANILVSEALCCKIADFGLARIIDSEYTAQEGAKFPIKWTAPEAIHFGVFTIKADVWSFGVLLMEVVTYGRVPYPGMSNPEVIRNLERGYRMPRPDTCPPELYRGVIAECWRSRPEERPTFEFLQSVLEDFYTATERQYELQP

Compound: CNC(=O)Nc1ccc(-c2nc(N3CC4CCC(C3)O4)c3cnn(C4CCC5(CC4)OCCO5)c3n2)cc1
% of control [1]: 90%

dTM [2]: -1.6 K
Compound: CN(C(=O)c1cnn2cccnc12)c1cc2c(cc1N1CCOCC1)C(=O)N(C[C@@H](F)C(C)(C)O)C2

Compound: COCC(=O)NC/C=C/c1ccc2ncnc(Nc3ccc(Oc4ccc(C)nc4)c(C)c3)c2c1 [CP-724714]
% of control [3]: 67%

Compound: C=CC(=O)Nc1cc(-n2c(=O)ccc3cnc4ccc(-c5ccc(NS(C)(=O)=O)cc5)cc4c32)ccc1C
% of control ([4]; at 1 µM): 100% | % of control ([4]; at 10 µM): 95%

Compound: Nc1cnc(N2CCc3cc(S(=O)(=O)Nc4c(F)cc(Cl)cc4F)cc(N4CCCC4=O)c32)nc1 [TP-020n]
% of control [5]: 100% | % of control [6]: 100%

Compound: C=CC(=O)Nc1ccc(C(=O)Nc2[nH]nc3c2CN(C(=O)N[C@H](CN(C)C)c2ccccc2)C3(C)C)cc1
% of engagement [7]: -6.3%

Compound: N#Cc1cccc(-c2c[nH]c3ncnc(N4CCOCC4)c23)c1
% of inhibition [8]: 16%
